According to patent US20160222014A1, “COMPOUNDS FOR REGULATING FAK AND/OR SRC PATHWAYS” (ASANA BIOSCIENCES, LLC, priority 2013, published 2016):
pIC50: −log10 of the molar value.

Experiments:
[1] = molecular target: T1, FAK phosphorylated at Y397 in HEK-FAK cell line overexpressing human FL FAK protein (Homo sapiens, UniProt Q05397); assay: Cell based assay, Phospho-FAK ELISA; conditions: HEK stb; read-out: pFAK EC50 (μM) HEK stb
T1 construct: expressed in transfected cells
Excerpt: D. Cell Based Assay-Phospho-FAK ELISA
The DuoSet IC ELISA (R&D systems—Cat no. DYC4528-5) provided the basic components required for the development of sandwich ELISAs to measure Focal Adhesion Kinase 1 (FAK) phosphorylated at Y397 in cell lysates. An immobilized capture antibody specific for FAK, also known as PTK2, binds both phosphorylated and unphosphorylated protein. After washing away unbound material, a biotinylated detection antibody specific for FAK phosphorylated at Y397 was used to detect only phosphorylated protein, utilizing a standard Streptavidin-HRP format. The cell line used for the assay was a stable HEK-FAK cell line overexpressing human FL FAK protein, which was generated as follows.
HEK293 cells (ATCC® CRL-1573™, 10801 University Boulevard, Manassas, Va. 20110 USA) were seeded in four 100 mm petri dishes at a seeding density of 1.5×10^6 cells per plate and incubated overnight at 37° C. in a 5% CO2 incubator. The transfection mix was prepared as follows. (A) 10 μg DNA (pCDNA4 V5/HisA vector containing Zeocin as mammalian selection marker, procured from Invitrogen) with the full length human FAK gene represented by the nucleotide sequence provided in NCBI Reference Sequence: NM_153831.3, SEQ ID NO: 1:
was added to 1.5 mL Opti-MEM® (reduced serum media is a modification of Eagle's Minimum Essential Media, buffered with HEPES and sodium bicarbonate and supplemented with hypoxanthine, thymidine, sodium pyruvate, L-glutamine, trace elements and growth factors commercially available from Invitrogen) and incubated at room temperature for 5 minutes. (B) 30 μL Lipofectamine™ Transfection reagent (Life Technologies) was added to 1.5 mL Opti-MEM® and incubated at room temperature for 5 minutes. Following this, (a) and (b) were mixed and incubated at room temperature for 20 minutes. Media was removed from cells and washed with 1× phosphate buffered saline (PBS) and the transfection mix prepared above was mixed with 3 mL of Opti-MEM®, added to the cells and incubated at 37° C. Four hours later, 6 mL of 20% Dulbecco's Modified Eagle Medium (DMEM) was added to the plates and incubated at 37° C. in a 5% CO2 incubator. Approximately 72 hours after transfection, cells were subcultured at various dilutions with fresh medium containing 0.8 mg/mL Zeocin™ (Life Technologies). Cells were replenished with selective medium every 3-4 days until cell foci were identified in the FAK transfected cells and most of the cells died in the control plates. Cells from these foci were grown in the presence of selective media and the expression of FAK was confirmed by Western Blotting. Over expression of FAK in the stably-transfected cells was quantified in the cell-based ELISA assay described below by determining the signal window, with a signal window of 2 or above considered to be robust). The HEK-FAK stable cell line thus was maintained in 0.8 mg/mL Zeocin™ (Life Technologies) and used in cell-based ELISA to assess autophosphorylation of FAK.
(i) Materials • 1. Phospho-FAK (Y397)-Capture Antibody • 2. Phospho-FAK (Y397)-Detection Antibody • 3. Streptavidin-HRP • 4. Cells used for the assay-HEK over expressing human FL FAK protein
(ii) Solutions • PBS—137 mM NaCl, 2.7 mM KCl, 8.1 mM Na2HPO4, 1.5 mM KH2PO4, pH 7.2-7.4, 0.2 μm filtered. • Wash Buffer—0.05% Tween20™ in PBS, pH 7.2-7.4 • Block Buffer—1% BSA, 0.05% NaN3, in PBS, pH 7.2-7.4. • IC Diluent #1-1% BSA in PBS, pH 7.2-7.4, 0.2 μm filtered. • IC Diluent #8-1 mM EDTA, 0.5% Triton™ X-100, 5 mM NaF in PBS, pH 7.2-7.4. IC Diluent #8 was also the base buffer for IC Diluent #3, IC Diluent #7, and Lysis. • Buffer #6. […]

AURKB (Aurora B) enzyme = molecular target: T2, AURKB (Aurora B) enzyme (Homo sapiens, UniProt Q96GD4); assay: Aurora B HTRF assay; type: biochemical; conditions: read-out: AuroraB IC50
T2 construct: purchased Invitrogen PVR 130
Outline: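 Enzyme (5 nM final) and ULight-labelled PLK Ser137 peptide (50 nM) reacted 1 h at room temperature; a 30 μM final component was also present. Detection used EDTA-containing buffer with europium anti-phospho-PLK(Ser137) antibody at 2 nM, 1 h, then time-resolved FRET readout.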

recombinant human FAK1 = molecular target: T3, recombinant human FAK1 (Homo sapiens, UniProt Q05397); assay: FAK1 HTRF assay; type: biochemical
T3 construct: fused on or other part: N-terminal 6xHis tag
Outline: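 IC50 values derive from HTRF % inhibition (ratio 665/620 nm, Eu–anti-phosphotyrosine 0.1 nM, SA-APC 12 nM). The kinase step ran 45 min at room temperature, pairing 10 nM His-FAK1(692–end) from baculovirus with 0.5 μM gastrin Tyr87 biotin-peptide and a reagent at 10 μM final, pH 7.4. Compound dilutions began at 10 μM.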

Recombinant Src enzyme = molecular target: T4, Recombinant Src enzyme (Homo sapiens, UniProt P12931); assay: Src HTRF assay; type: biochemical
T4 construct: purchased Millipore 14-326; host or cells: Sf21 insect cells
Outline: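 Run as for the FAK HTRF assay (same buffer, supplements, compound preparation and procedure), with dasatinib included. Reaction contained 0.5 μM biotin-tagged Tyk2 synthetic peptide, 5 nM Src made in Sf21 cells, and a pH7.4-buffer-prepared component at 10 μM final.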

T1 sequence (Q05397 whole entry): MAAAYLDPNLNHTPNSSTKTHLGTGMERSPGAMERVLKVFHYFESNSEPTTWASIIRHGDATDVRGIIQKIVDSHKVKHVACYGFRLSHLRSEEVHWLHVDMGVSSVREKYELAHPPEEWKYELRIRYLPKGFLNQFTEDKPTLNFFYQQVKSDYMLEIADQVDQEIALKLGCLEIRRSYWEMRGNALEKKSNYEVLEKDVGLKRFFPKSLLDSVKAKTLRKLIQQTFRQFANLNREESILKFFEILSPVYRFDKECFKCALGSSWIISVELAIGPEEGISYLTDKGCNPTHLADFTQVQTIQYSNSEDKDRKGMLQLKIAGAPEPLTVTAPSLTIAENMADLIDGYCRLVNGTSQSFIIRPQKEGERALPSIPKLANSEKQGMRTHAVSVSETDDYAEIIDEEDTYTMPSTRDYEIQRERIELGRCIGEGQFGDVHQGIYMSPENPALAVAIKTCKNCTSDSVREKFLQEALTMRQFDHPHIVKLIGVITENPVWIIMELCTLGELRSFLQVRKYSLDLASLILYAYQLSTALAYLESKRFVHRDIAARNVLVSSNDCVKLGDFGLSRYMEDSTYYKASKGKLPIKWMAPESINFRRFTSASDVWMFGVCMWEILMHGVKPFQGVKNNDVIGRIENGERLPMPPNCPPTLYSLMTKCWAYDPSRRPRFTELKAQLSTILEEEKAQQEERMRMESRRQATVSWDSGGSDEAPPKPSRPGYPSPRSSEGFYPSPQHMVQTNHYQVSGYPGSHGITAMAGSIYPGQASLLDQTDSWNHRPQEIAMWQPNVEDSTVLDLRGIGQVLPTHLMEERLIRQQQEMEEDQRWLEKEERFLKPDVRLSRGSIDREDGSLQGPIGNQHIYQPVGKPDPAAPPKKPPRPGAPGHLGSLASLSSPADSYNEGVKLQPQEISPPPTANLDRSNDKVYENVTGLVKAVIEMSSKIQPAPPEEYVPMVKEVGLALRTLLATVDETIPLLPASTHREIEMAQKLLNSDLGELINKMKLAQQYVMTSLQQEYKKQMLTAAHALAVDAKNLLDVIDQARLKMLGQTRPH
T2 sequence (Q96GD4 whole entry): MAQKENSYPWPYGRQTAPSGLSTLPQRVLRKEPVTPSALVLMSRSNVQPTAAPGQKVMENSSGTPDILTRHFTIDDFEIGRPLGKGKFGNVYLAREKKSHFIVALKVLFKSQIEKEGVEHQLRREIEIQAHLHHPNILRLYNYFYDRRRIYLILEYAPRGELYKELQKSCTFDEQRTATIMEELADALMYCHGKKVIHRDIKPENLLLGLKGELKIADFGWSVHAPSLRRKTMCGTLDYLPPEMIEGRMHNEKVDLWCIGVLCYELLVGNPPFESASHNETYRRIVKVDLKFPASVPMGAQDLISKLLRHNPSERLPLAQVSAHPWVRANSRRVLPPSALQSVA
T4 sequence (P12931 whole entry): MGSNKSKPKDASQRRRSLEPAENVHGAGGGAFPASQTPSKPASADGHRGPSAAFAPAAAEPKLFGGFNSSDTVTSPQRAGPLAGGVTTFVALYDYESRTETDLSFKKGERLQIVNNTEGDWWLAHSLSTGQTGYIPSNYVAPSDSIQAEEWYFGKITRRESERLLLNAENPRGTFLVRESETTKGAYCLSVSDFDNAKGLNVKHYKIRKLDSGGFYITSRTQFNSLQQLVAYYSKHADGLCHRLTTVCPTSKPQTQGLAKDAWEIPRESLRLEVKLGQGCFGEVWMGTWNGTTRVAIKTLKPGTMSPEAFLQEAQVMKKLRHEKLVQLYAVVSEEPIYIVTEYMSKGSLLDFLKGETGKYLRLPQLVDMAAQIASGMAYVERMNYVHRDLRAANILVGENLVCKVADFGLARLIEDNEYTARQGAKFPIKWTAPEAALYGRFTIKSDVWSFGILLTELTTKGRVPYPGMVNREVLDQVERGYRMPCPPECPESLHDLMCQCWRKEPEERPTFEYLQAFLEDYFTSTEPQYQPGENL
T3 sequence (Q05397 422-680 limits assumed): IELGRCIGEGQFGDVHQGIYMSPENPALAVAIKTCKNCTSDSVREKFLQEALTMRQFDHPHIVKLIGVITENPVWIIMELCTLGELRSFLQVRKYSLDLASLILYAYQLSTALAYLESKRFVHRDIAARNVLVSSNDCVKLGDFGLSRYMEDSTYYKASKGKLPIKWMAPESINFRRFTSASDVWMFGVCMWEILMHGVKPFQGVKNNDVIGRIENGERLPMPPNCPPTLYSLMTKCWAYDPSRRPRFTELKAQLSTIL

## COc1ccccc1S(=O)(=O)N1CCc2cnc(Nc3ccc(N4CCNCC4)cc3)nc21 [Example 344]
[1]
  EC50: > 1 µM
AURKB (Aurora B) enzyme
  pIC50: > 7.70

## COc1cc(Nc2ncc3ccn(S(=O)(=O)c4cccc5cccnc45)c3n2)ccc1N1CCNCC1 [Example 198]
[1]
  EC50: < 0.02 µM
Recombinant human FAK1
  pIC50: > 7.70
AURKB (Aurora B) enzyme
  pIC50: > 7.70

## COCCN1CCN(c2ccc(Nc3cc4c(ccn4S(=O)(=O)c4cccc5cccnc45)cn3)c(OC)c2)CC1 [Example 444]
[1]
  EC50: < 0.02 µM
Recombinant human FAK1
  pIC50: > 7.70
Recombinant Src enzyme
  pIC50: < 6.00

## CN(C)C1CN(c2ccc(Nc3cc4c(ccn4S(=O)(=O)c4ccccc4C#N)cn3)cc2)C1 [Example 623]
[1]
  EC50: > 1 µM
Recombinant Src enzyme
  pIC50: < 6.00

## COc1cc(N2CCN(CCO)CC2)ccc1Nc1cc2c(cn1)cnn2S(=O)(=O)c1cccc2cccnc12 [Example 387]
[1]
  EC50: < 0.02 µM
Recombinant human FAK1
  pIC50: > 7.70
Recombinant Src enzyme
  pIC50: < 6.00

## CN(C)C1CCN(c2ccc(Nc3ncc4c(n3)N(S(=O)(=O)c3cccc5ccccc35)CC4(C)C)cc2)CC1 [Example 755]
[1]
  EC50: > 1 µM
Recombinant Src enzyme
  pIC50: < 6.00

## CN(c1ncccc1Cn1ccc2cnc(Nc3ccc(N4CC5CC4CN5)cc3)cc21)S(C)(=O)=O (stereo not drawn) [Example 371]
[1]
  EC50: > 1 µM
Recombinant Src enzyme
  pIC50: < 6.00

## CS(=O)(=O)Nc1ccccc1Cn1ccc2cnc(Nc3ccc(N4CCNCC4)cc3)nc21 [Example 519]
[1]
  EC50: > 1 µM
Recombinant Src enzyme
  pIC50: > 7.70

## CNC1CCN(c2ccc(Nc3ncc4c(n3)N(S(=O)(=O)c3cccc5ccccc35)CC4(C)C)cc2)CC1 [Example 707]
[1]
  EC50: > 1 µM
Recombinant Src enzyme
  pIC50: < 6.00

## COc1cc(N2CCN(CCOC(C)=O)CC2)ccc1Nc1cc2c(ccn2S(=O)(=O)c2cccc3cccnc23)cn1 [Example 451]
[1]
  EC50: < 0.02 µM
Recombinant human FAK1
  pIC50: > 7.70
Recombinant Src enzyme
  pIC50: < 6.00

## COc1cc(N2CCNCC2)ccc1Nc1ncc2ccn(S(=O)(=O)c3cccc4ccc(C)nc34)c2n1 [Example 365]
[1]
  EC50: > 1 µM
Recombinant Src enzyme
  pIC50: < 6.00

## CC1(C)CN(c2ccccn2)c2nc(Nc3ccc(N4CCNCC4)cc3)ncc21 [Example 534]
[1]
  EC50: > 1 µM
AURKB (Aurora B) enzyme
  pIC50: < 6.00

## CN(c1ccccc1Cn1ccc2cnc(Nc3ccc(N4CCNCC4=O)cc3)nc21)S(C)(=O)=O [Example 550]
[1]
  EC50: > 1 µM
Recombinant human FAK1
  pIC50: > 7.70
AURKB (Aurora B) enzyme
  pIC50: > 7.70

## COc1cc(Nc2ncc3ccn(S(=O)(=O)c4cccc5cccnc45)c3n2)cc(OC)c1OC [Example 392]
[1]
  EC50: > 1 µM
AURKB (Aurora B) enzyme
  pIC50: > 7.70

## CC1(C)CN(S(=O)(=O)c2cccc3cccnc23)c2nc(Nc3ccc(N4CCN(CC(=O)O)CC4)cc3)ncc21 [Example 699]
[1]
  EC50: > 1 µM
Recombinant Src enzyme
  pIC50: < 6.00

## Cn1cc(Nc2cc3c(cn2)cnn3S(=O)(=O)c2cccc3cccnc23)cn1 [Example 349]
[1]
  EC50: > 1 µM
Recombinant Src enzyme
  pIC50: < 6.00

## Cc1cc(Nc2ncc3ccn(S(=O)(=O)c4cccs4)c3n2)ccc1N1CCNCC1 [Example 229]
[1]
  EC50: > 1 µM
Recombinant Src enzyme
  pIC50: > 7.70

## COc1cc(Nc2ncc3ccn(Cc4ccccc4N(C)S(C)(=O)=O)c3n2)ccc1N1CCN(CCO)CC1 [Example 421]
[1]
  EC50: > 1 µM
Recombinant human FAK1
  pIC50: > 7.70

## CN(c1ncccc1Cn1ccc2cnc(Nc3ccc4[nH]c(=O)[nH]c4c3)nc21)S(C)(=O)=O [Example 77]
[1]
  EC50: > 1 µM
Recombinant human FAK1
  pIC50: > 7.70

## CN(c1ccccc1Cn1ccc2cnc(Nc3ccc(-n4ccccc4=O)cc3)nc21)S(C)(=O)=O [Example 576]
[1]
  EC50: > 1 µM
Recombinant Src enzyme
  pIC50: < 6.00

## C[C@H]1CN(c2ccc(Nc3ncc4ccn(S(=O)(=O)c5ccccc5C#N)c4n3)cc2)CCN1 [Example 242]
[1]
  EC50: > 1 µM
AURKB (Aurora B) enzyme
  pIC50: > 7.70

## CN(c1ncccc1Cn1ccc2cnc(Nc3ccc4c(c3)CCC(=O)N4)cc21)S(C)(=O)=O [Example 31]
[1]
  EC50: > 1 µM
Recombinant human FAK1
  pIC50: > 7.70

## CN(c1ccccc1Cn1ncc2cnc(Nc3ccc4c(c3)CCC(=O)N4)cc21)S(C)(=O)=O [Example 225]
[1]
  EC50: > 1 µM
Recombinant human FAK1
  pIC50: > 7.70

## COc1cc(C(=O)N2CCOCC2)c(F)cc1Nc1ncc2ccn(Cc3ccccc3N(C)S(C)(=O)=O)c2n1 [Example 512]
[1]
  EC50: > 1 µM
Recombinant Src enzyme
  pIC50: < 6.00

## O=S(=O)(c1cccc2cccnc12)n1ccc2cnc(Nc3ccc(CN4CCCC(CO)C4)cc3)nc21 (stereo not drawn) [Example 247]
[1]
  EC50: < 0.02 µM
Recombinant human FAK1
  pIC50: > 7.70
AURKB (Aurora B) enzyme
  pIC50: > 7.70

## O=S(=O)(c1cccc2cccnc12)n1ccc2cnc(Nc3cnn(C4CCNCC4)c3)nc21 [Example 355]
[1]
  EC50: > 1 µM
AURKB (Aurora B) enzyme
  pIC50: > 7.70

## N#Cc1ccccc1S(=O)(=O)n1ncc2cnc(Nc3ccc(N4CCN(CCO)CC4)cc3)cc21 [Example 419]
[1]
  EC50: > 1 µM
Recombinant Src enzyme
  pIC50: < 6.00

## CN1CCN(c2ccc(Nc3cc4c(ccn4S(=O)(=O)c4ccccc4C#N)cn3)cc2)CC1 [Example 506]
[1]
  EC50: > 1 µM
Recombinant human FAK1
  pIC50: > 7.70

## CN(c1ncccc1Cn1ccc2cnc(Nc3ccc4c(c3)CC(=O)N4CCO)nc21)S(C)(=O)=O [Example 615]
[1]
  EC50: > 1 µM
AURKB (Aurora B) enzyme
  pIC50: > 7.70

## CN(c1ncccc1CN1c2nc(Nc3ccc(N4CCNCC4)cc3)ncc2C(C)(C)C1O)S(C)(=O)=O (stereo not drawn) [Example 455]
[1]
  EC50: > 1 µM
Recombinant Src enzyme
  pIC50: < 6.00

## C[C@@H]1CNCCN1c1ccc(Nc2cc3c(ccn3S(=O)(=O)c3ccccc3C#N)cn2)cc1 [Example 479]
[1]
  EC50: > 1 µM
AURKB (Aurora B) enzyme
  pIC50: > 7.70

## COc1cccc(N(C)S(C)(=O)=O)c1Cn1ccc2cnc(Nc3ccc(N4CCN[C@@H](C)C4)cc3)nc21 [Example 701]
[1]
  EC50: > 1 µM
Recombinant Src enzyme
  pIC50: < 6.00

## CN(c1ncccc1Cn1ccc2cnc(Nc3ccc(N4CCOCC4)cc3)cc21)S(C)(=O)=O [Example 397]
[1]
  EC50: > 1 µM
Recombinant Src enzyme
  pIC50: < 6.00
